Assay results from patent US10624346B2, “Herbicidal composition and method for controlling weeds” (Sumitomo Chemical Company, Limited, priority 2016, dated 2020).

How the values were obtained:
Echinochloa crus-galli = test: Greenhouse pot test, post-emergence spray, herbicidal effect (Examples 202, 203); type: in vivo; conditions: sprayed at 2-3 leaf stage, one week
Source text: (§1) A plastic pot was filled with a commercially-available culture soil, and thereto inubie (common barnyardgrass; Echinochloa crus-galli) or akinoenokorogusa (giant foxtail; […] When the weeds grew to two to three leaf stage, a spray liquid of the compound X, a spray liquid of dicamba diglycolamine salt, or a spray liquid of the present composition was uniformly sprayed to the whole plants so that the application rate might be a predetermined value. The spray liquid of the present composition was prepared by mixing the spray liquid of the compound X with the spray liquid of dicamba diglycolamine salt. The spray liquid of the compound X was prepared by mixing a predetermined amount of the formulation X with deionized water. […] After applying the spray liquid, the plants were placed in a greenhouse for a week. […] A plastic pot was filled with a commercially-available culture soil, and thereto inubie (common barnyardgrass; Echinochloa crus-galli) or akinoenokorogusa (giant foxtail; […] The spray liquid of the compound X was prepared by mixing a predetermined amount of the formulation X with deionized water. […] After applying the spray liquid, the plants were placed in a greenhouse for a week.

Setaria faberi = test: as above; type: in vivo; conditions: sprayed at 2-3 leaf stage, one week
Source text: as §1

[1] = Compound X 5 g/ha alone, scale 0 (no effect) to 100 (completely dead)
[2] = Compound X 10 g/ha alone, scale 0-100
[3] = dicamba salt 50 g/ha alone, scale 0-100
[4] = dicamba salt 500 g/ha alone, scale 0-100

SMILES | Herbicidal effect on Echinochloa crus-galli (observed value) (Echinochloa crus-galli; [1]) | Herbicidal effect on Echinochloa crus-galli (observed value) (Echinochloa crus-galli; [2]) | Herbicidal effect on Setaria faberi (observed value) (Setaria faberi; [1]) | Herbicidal effect on Setaria faberi (observed value) (Setaria faberi; [2]) | Herbicidal effect on Echinochloa crus-galli (observed value) (Echinochloa crus-galli; [3]) | Herbicidal effect on Echinochloa crus-galli (observed value) (Echinochloa crus-galli; [4]) | Herbicidal effect on Setaria faberi (observed value) (Setaria faberi; [3]) | Herbicidal effect on Setaria faberi (observed value) (Setaria faberi; [4])
CCOC(=O)COc1ncccc1Oc1cc(-n2c(=O)cc(C(F)(F)F)n(C)c2=O)c(F)cc1Cl [Compound X, ethyl [3-[2-chloro-4-fluoro-5-(1-methyl-6-trifluoromethyl-2,4-dioxo-1,2,3,4-tetrahydropyrimidin-3-yl)phenoxy]-2-pyridyloxy]acetate] | 20 | 35 | 30 | 45 |  |  |  | 
COc1c(Cl)ccc(Cl)c1C(=O)O.NCCOCCO [dicamba diglycolamine salt] |  |  |  |  | 0 | 10 | 0 | 0
CN(CCCN)CCCN.COc1c(Cl)ccc(Cl)c1C(=O)O [dicamba BAPMA salt, dicamba N,N-bis(3-aminopropyl)methylamine salt] |  |  |  |  | 0 | 5 | 0 | 10
